Experimental data from patent publication US12286661B2, “Methods for making high intensity sweeteners” (Firmenich Incorporated, priority 2018, dated 2025).
Entries after “also recorded” stand apart in the source; their conditions may differ.

Columns and labels:
[1] = system: Saccharomyces cerevisiae, Yarrowia lipolytica and Candida bombicola; assay: Tolerance to microbial hydrolysis: yeast strains incubated in YPD with 1 mg/ml compound, supernatants analysed by HPLC; assay type: cell-based; details: after 3 days
Description: Yeast strains Saccharomyces cerevisiae, Yarrowia lipolytica and Candida bombicola, were incubated in YPD supplemented with 1 mg/ml Mogroside V or Compound 1. After 3 days, supernatants were analyzed by HPLC.

Y. lipolytica = assay: Hydrolysis by hydrolytic enzymes of yeast grown in the presence of the compound, HPLC of lysed cells; assay type: cell-based; details: Y. lipolytica grown in the presence of the compound
Description: (§1) S. cerevisiae or Y. lipolytica was grown in the presence of Mogroside V to allow the hydrolytic enzymes in the yeast to generate Mogroside IIIE. After 1 or 2 days, the cells were lysed in analyzed by HPLC to determine the mogroside content.
(§2) S. cerevisiae or Y. lipolytica was grown in the presence of Compound 1.

S. cerevisiae = assay: as above; assay type: cell-based; details: S. cerevisiae grown in the presence of the compound
Description: as §1, §2

mogrol precursors = assay: Mogrol production by EPHs tested in a yeast strain producing mogrol precursors; assay type: cell-based
Excerpt: DNA was obtained through gene synthesis either through Genescript, IDT, or Genewiz. For some of the cucurbitadienol synthases, cDNA or genomic DNA was obtained through 10-60 day old seedlings followed by PCR amplification using specific and degenerate primers. DNA was cloned through standard molecular biology techniques or through yeast gap repair cloning (Joska et al., 2014) into one of the following overexpression vectors: pESC-Ura, pESC-His, or pESC-LEU. Gene expression was regulated by one of the following promoters; Gall, Gal10, Tef1, or GDS. Yeast transformation was performed using Zymo Yeast Transformation Kit II. Yeast strains were grown in standard media (YPD or SC) containing the appropriate selection with 2% glucose or 2% galactose for induction of heterologous genes. Yeast strains were grown in shake flask or 96 well plates at 30° ° C., 140-250 rpm. When indicated, lanosterol synthase inhibitor, Ro 48-8071 (Cayman Chemicals) was added (50 ug/ml). […]

[2] = system: cucurbitadienol synthase activity; assay: Cucurbitadienol synthase activities of fusion proteins in yeast strain with oxidosqualene boost, LCMS; assay type: cell-based, S. cerevisiae; details: average % activities over the average activities of the parent enzyme (Cucumis melo cucurbitadienol synthase)
Description: For analyzing cucurbitadienol, the first LCMS method included the use of C4 2.1×100 mm column, gradient 1 to 95% B for 6 minutes, and at flow rate of 0.55 ml/min; and the second LCMS method included the use of Waters Acquity UPLC Protein BEH C4 2.1×100 […], 1.7 μm, with guard, 62 to 67% B for 2 min, 100% B for 1 min, and at flow rate of 0.9 ml/min and ESI source positive single ion monitoring of 427 and 409.
The gene encoding for a cucurbitadienol synthase form Cucumis melo was codon optimized (SEQ ID: 907) and used as a starting point for generating a library of modifications. Modifications were introduced through standard molecular biology techniques consisting of fusion peptides at the N-terminus (i.e., 5′) or C-terminus (i.e., 3′) end of the enzyme. Plasmids libraries of modified cucurbitadienol synthase genes were transformed into a yeast strain with oxidosqualene boost. Enzyme activities were measured by ratios of peak heights or areas of 409 and 427 positive mass fragments at the expected retention times for cucurbitadienol vs. an internal standard using LCMS method 2 described above. Enzyme performance were scored as average % activities over the average activities of the parent enzyme (n=8). Step 1 sequences of the enzymes and the sequences that encode the enzyme can be found in SEQ ID NOs: 951-1012. Step 1 sequence also include the fusions SS2c-G10, SS2e-A7b, SS2d-G11. […]

C[C@H](CC[C@@H](O[C@@H]1O[C@H](CO[C@H]2O[C@H](CO)[C@@H](O)[C@H](O)[C@H]2O)[C@@H](O)[C@H](O)[C@H]1O[C@@H]1O[C@H](CO)[C@@H](O)[C@H](O)[C@H]1O)C(C)(C)O)C1CC[C@@]2(C)C3CC=C4C(CC[C@H](O[C@@H]5O[C@H](CO)[C@@H](O)[C@H](O)[C@H]5O)C4(C)C)[C@]3(C)[C@H](O)C[C@]12C (some centres unmarked) [Compound 1]
hydrolysis by yeast strains (hydrolysis products by HPLC) [1]: no hydrolysis products observed; also recorded: tolerance of Compound 1 to hydrolysis by microbial enzymes
hydrolysis products (Y. lipolytica): no hydrolysis products due to hydrolysis of Compound 1 was observed; also recorded: no hydrolysis product from Compound 1 was detected
hydrolysis products (S. cerevisiae): no hydrolysis products due to hydrolysis of Compound 1 was observed; also recorded: no hydrolysis product from Compound 1 was detected

B1: SEQ ID NO. 1072 and 1073: epoxide hydrolase (EPH); coding DNA and protein sequence (protein)
chain: MDAIQHTTIKTNGIKMHIASVGNGPVVLLLHGFPELWYSWRHQLLYLSSVGYRAIAPDLRGYGDTDSPESHTSYTALHIVGDLVGALDELGIEKVFLVGHDWGAIIAWYFCLFRPERIKALVNLSVQFFPRNPAISFIQRFRAAYGDDFYMCRFQVPGEAEADFACIDTAQLFKTTLSNRSTKAPCLPKEYGFRAIPPPENLPSWLTEEDINYYAAKFKETGFTGALNYYRAFDLTWELTAPWTGVQIQVPVKFIVGDSDLTYHFKGAKEYIHEGGFKRDVPLLEEVVIVENAGHFVHEEKPHEINTHIHDFIKKF
modifications: Cucumis melo
ability to produce mogrol (mogrol precursors): showed the ability to produce mogrol

B2: SEQ ID NO 1024: fusion protein having cucurbitadienol synthase activity (protein, listed as Citrullus lanatus)
chain: MWTILLGLATLAIAYYIHWVNKWKDSKFNGVLPPGTMGLPLIGETIQLSRPSDSLDVHPFIQSKVKRYGPIFKTCLAGRPVVVSTDAEFNHYIMLQEGRAVEMWYLDTLSKFFGLDTEWLKALGLIHKYIRSITLNHFGAESLRERFLPRIEESARETLHYWSTQPSVEVKESAAAMVFRTSIVKMFSEDSSKLLTGGLTKKFTGLLGGFLTLPLNLPGTTYNKCIKDMKEIQKKLKDILEERLAKGTGNDEDFLGQAIKDKESQQFISEEFIIQLLFSISFASFESISTSLTLILKFLADHPQVVKELEAEHEAIQKARADPDGPITWEEYKSMTFTLNVISETLRLGSVTPALLRKTTKEIQIKGYTIPEGWTVMLVTASRHRDPEVYKDPDTFNPWRWKELDSITVQKNFMPFGGGLRHCAGAEYSKVYLCTFLHILFTKYRWTKLKGGKIARAHILRFEDGLHVKFTPKE
Activity (as compared to the parent) [2]: 166%
